According to patent US20080214582A1, “Purine Derivatives as Inhibitors of Receptor Tyrosine Kinase Activity” (priority 2005, published 2008):

Columns and labels:
Tie-2 kinase = Tie-2 kinase (Homo sapiens, UniProt Q02763); assay: Tie-2 kinase inhibition (flashplate, poly(Glu,Tyr), 33P-ATP); format: biochemical
Protocol: The TIE-2 tests can be carried out, for example, analogously to the methods indicated in WO 02/44156.
The assay determines the inhibiting activity of the substances to be tested in the phosphorylation of the substrate poly(Glu, Tyr) by Tie-2 kinase in the presence of radioactive ^33P-ATP. The phosphorylated substrate binds to the surface of a “flashplate” microtitre plate during the incubation time. After removal of the reaction mixture, the microtitre plate is washed a number of times and the radioactivity on its surface is subsequently measured. An inhibiting effect of the substances to be measured results in lower radioactivity compared with an undisturbed enzymatic reaction.

VEGFR (KDR) = biological target: T1, VEGFR (KDR) (Homo sapiens, UniProt P35968); assay: VEGF receptor kinase assay (pEY substrate, 33P incorporation); format: biochemical; conditions: kinase inhibition
T1 construct: cloning the cytoplasmic domain of the KDR kinase as an in frame fusion at the carboxyl terminus of the GST gene; made in house; host or cells: Spodoptera frugiperda Sf21 insect cells, baculovirus vector pAcG2T
Protocol: VEGF receptor kinase activity is measured by incorporation of radiolabelled phosphate into 4:1 polyglutamic acid/tyrosine substrate (pEY). The phosphorylated pEY product is trapped on a filter membrane and the incorporation of radiolabelled phosphate is quantified by scintillation counting.
The intracellular tyrosine kinase domains of human KDR (Terman, B. I. et al. Oncogene (1991) Vol. 6, pp. 1677-1683.) and Flt-1 (Shibuya, M. et al. Oncogene (1990) Vol. 5, pp. 519-524) were cloned as glutathione S-transferase (GST) gene fusion proteins. This was accomplished by cloning the cytoplasmic domain of the KDR kinase as an in frame fusion at the carboxyl terminus of the GST gene. Soluble recombinant GST-kinase domain fusion proteins were expressed in Spodoptera frugiperda (Sf21) insect cells (Invitrogen) using a baculovirus expression vector (pAcG2T, Pharmingen).
1. Sf21 cells were infected with recombinant virus at a multiplicity of infection of 5 virus particles/cell and grown at 27° C. for 48 hours. 2. All steps were performed at 4° C. Infected cells were harvested by centrifugation at 1000×g and lysed at 4° C. for 30 minutes with 1/10 volume of lysis buffer followed by centrifugation at 100000×g for 1 hour. The supernatant was then passed over a glutathione Sepharose acid (Pharmacia) equilibrated with lysis buffer and washed with 5 volumes of the same buffer followed by 5 volumes of wash buffer. Recombinant GST-KDR protein was eluted with wash buffer/10 mM reduced glutathione (Sigma) and dialysed against dialysis buffer.
1. Add 5 μl of inhibitor or control to the assay in 50% DMSO. 2. Add 35 μl of reaction mixture containing 5 μl of 10× reaction buffer, 5 μl of 25 mM ATP/10 μCi[^33P]ATP (Amersham) and 5 μl of 10× substrate. 3. Start the reaction by the addition of 10 μl of KDR (25 nM) in enzyme dilution buffer. 4. Mix and incubate at room temperature for 15 minutes. 5. Stop the reaction by the addition of 50 μl of stop solution. 6. Incubate at 4° C. for 15 minutes. 7. Transfer a 90 μl aliquot to filter plate. 8. Aspirate and wash 3 times with wash solution. 9. Add 30 μl of scintillation cocktail, seal plate and count in a Wallace Microbeta scintillation counter.

Sequence of Tie-2 kinase (Q02763 23-1124): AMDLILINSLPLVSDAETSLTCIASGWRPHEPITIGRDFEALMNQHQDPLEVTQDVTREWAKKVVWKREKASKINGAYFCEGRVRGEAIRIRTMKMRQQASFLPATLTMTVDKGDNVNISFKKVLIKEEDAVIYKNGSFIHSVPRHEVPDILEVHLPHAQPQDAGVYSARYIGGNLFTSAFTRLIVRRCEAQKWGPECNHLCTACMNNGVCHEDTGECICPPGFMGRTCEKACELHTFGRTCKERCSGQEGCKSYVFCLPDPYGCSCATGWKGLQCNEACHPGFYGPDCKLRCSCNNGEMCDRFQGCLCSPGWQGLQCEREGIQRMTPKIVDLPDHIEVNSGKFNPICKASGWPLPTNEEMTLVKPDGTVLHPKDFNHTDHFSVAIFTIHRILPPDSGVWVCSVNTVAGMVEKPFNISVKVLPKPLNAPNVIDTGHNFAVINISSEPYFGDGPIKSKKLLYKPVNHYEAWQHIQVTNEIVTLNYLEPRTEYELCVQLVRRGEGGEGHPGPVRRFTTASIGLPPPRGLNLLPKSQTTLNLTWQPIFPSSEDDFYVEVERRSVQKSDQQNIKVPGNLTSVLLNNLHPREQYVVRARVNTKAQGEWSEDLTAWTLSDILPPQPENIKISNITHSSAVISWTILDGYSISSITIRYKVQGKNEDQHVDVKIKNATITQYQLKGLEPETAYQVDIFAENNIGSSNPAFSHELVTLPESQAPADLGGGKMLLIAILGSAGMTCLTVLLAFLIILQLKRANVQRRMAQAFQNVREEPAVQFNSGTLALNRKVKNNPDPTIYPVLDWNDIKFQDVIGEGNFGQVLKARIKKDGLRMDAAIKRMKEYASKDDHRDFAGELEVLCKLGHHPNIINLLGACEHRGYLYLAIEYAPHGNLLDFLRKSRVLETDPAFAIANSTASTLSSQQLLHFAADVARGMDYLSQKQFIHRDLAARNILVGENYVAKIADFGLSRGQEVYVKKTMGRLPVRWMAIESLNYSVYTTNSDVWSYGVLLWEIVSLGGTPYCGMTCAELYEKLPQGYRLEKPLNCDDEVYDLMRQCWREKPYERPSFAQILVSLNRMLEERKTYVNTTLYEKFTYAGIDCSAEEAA
T1 sequence (P35968 786-1356 limits assumed): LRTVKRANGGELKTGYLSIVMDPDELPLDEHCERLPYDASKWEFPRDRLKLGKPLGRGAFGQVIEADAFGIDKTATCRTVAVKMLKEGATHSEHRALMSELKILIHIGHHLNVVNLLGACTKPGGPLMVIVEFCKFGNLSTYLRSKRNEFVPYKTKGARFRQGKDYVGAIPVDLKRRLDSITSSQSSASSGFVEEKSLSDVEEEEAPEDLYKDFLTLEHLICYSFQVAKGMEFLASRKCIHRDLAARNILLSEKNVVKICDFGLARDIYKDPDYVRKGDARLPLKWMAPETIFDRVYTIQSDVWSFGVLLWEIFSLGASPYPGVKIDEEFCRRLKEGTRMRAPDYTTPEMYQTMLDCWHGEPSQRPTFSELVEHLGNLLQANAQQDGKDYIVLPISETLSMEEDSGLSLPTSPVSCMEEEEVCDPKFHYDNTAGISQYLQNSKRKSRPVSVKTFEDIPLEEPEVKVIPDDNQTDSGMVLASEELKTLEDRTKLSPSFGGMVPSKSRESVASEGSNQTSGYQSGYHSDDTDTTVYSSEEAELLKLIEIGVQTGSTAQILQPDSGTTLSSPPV

| Structure (SMILES) | IC50 (Tie-2 kinase) | IC50 (VEGFR (KDR)) |
| --- | --- | --- |
| Nc1ncnc2c1ncn2-c1ccc(NC(=O)Nc2cc(C(F)(F)F)ccc2OC2CCNC2)cc1 (stereo not shown) [Compound 1, 1-[4-(6-aminopurin-9-yl)phenyl]-3-[2-(pyrrolidin-3-yloxy)-5-trifluoromethylphenyl]urea] | 34.3 nM | 88 nM |
| Nc1ncnc2c1ncn2-c1ccc(NC(=O)Nc2cccc(C(F)(F)F)c2)cc1 [Compound 2, 1-[4-(6-aminopurin-9-yl)phenyl]-3-(3-trifluoromethylphenyl)urea] | 14 nM | 3.6 nM |
| Nc1ncnc2c1ncn2-c1ccc(NC(=O)Nc2cc(C(F)(F)F)ccc2F)cc1 [Compound 4, 1-[4-(6-aminopurin-9-yl)phenyl]-3-(2-fluoro-5-trifluoromethylphenyl)urea] | 49 nM | 5.7 nM |
| Nc1ncnc2c1ncn2-c1ccc(NC(=O)Nc2cccc(OC(F)(F)F)c2)cc1 [Compound 5, 1-[4-(6-aminopurin-9-yl)phenyl]-3-(3-trifluoromethoxyphenyl)urea] | 35 nM | 5 nM |
| Nc1ncnc2c1ncn2-c1ccc(NC(=O)Nc2cc(C(F)(F)F)ccn2)cc1 [Compound 6, 1-[4-(6-aminopurin-9-yl)phenyl]-3-(4-trifluoromethylpyridin-2-yl)urea] | 100 nM | 4.6 nM |
| Nc1ncnc2c1ncn2-c1ccc(NC(=O)Nc2cc(C(F)(F)F)ccc2-n2cncn2)cc1 [Compound 9, 1-[4-(6-aminopurin-9-yl)phenyl]-3-(2-[1,2,4]triazol-1-yl-5-trifluoromethylphenyl)urea] | 12.5 nM | 7.7 nM |
| Nc1ncnc2c1ncn2-c1ccc(NC(=O)Nc2ccc(OC3CCNC3)c(C(F)(F)F)c2)cc1 (stereo not shown) [Compound 11, 1-[4-(6-aminopurin-9-yl)phenyl]-3-[4-(pyrrolidin-3-yloxy)-3-trifluoromethylphenyl]urea] | 110 nM | 4.4 nM |
| CC(C)(C)c1cc(NC(=O)Nc2ccc(-n3cnc4c(N)ncnc43)cc2)no1 [Compound 15, 1-[4-(6-aminopurin-9-yl)phenyl]-3-(5-tert-butylisoxazol-3-yl)urea] | 19.5 nM | 2 nM |
